From patent publication US20140228440A1, “1-AMINO-ALKYLCYCLOHEXANE DERIVATIVES FOR THE TREATMENT OF INFLAMMATORY SKIN DISEASES” (MERZ PHARMA GmbH & CO. KGaA, priority 2008, published 2014)

What was measured:
[1] = test system: Propionibacterium acnes ATCC 11828; assay: MIC and MBC by the agar dilution method; format: cell-based
Experimental: (§1) To assess the anti-microbial potency of Neramexane against acne relevant bacterias the minimal inhibitory concentration (MIC) and minimal bactericidal concentration (MBC) against the following bacterias is established: The MICs of the samples are determined using the agar dilution method based on DIN 58940. Petri dishes of 5.5 cm diameter are poured with 2.5 ml of freshly prepared Mueller-Hinton agar (Merck company, Cat-No 1.05437) or Wilkins-Chalgren-Agar (Oxoid company, Cat-No CM643), maintained in liquid form at 50° C., to which the sample dilutions at various concentrations have been added at 50.0 vol.-%. To prepare the starting sample dilutions, a 12.5%, 3.12% suspension of the respective sample solution is prepared with Aqua purificata. From these stock-solutions, further dilutions are prepared with Aqua purificata. All test compounds are adjusted to pH 5.5. For test product no. 1, separate dilutions adjusted to pH 6.0 and pH 7.4 are also prepared. For inoculation, 1 μl of the respective germ suspension is placed on the centre of each agar plate. After drying, inoculated plates are incubated at 36.0±2.0° C. The basis for the length of incubation period is the respective growth control cultivated in parallel. The test microbe suspension is prepared by inoculating a few individual colonies of the respective bacteria into sterile saline solution until a turbidity corresponding to the McFarland standard 1.0 (approximately 10^8 cfu/ml) is reached. After that, the test microbe suspensions are further diluted 1:10 with saline solution and the microbial counts (see Table 21) are determined by the surface spread method using a spiral plater. The agar plates are incubated under the conditions given in Table 22 and subsequently evaluated. The MIC-values as given represent the lowest concentration of the active substance at which there is no macroscopically visible growth. Minimal, barely visible growth or few small individual colonies are evaluated as inhibition. [table] All negative tests of the determination of the minimal bactericial concentration are the basis of verification of remaining germs, the inoculated agar segments are cut and put in Mueller-Hinton-Bouillon (germ 1) or Wilkins-Chalgren-Bouillon (germs 2-4). After an adequate incubation period at 36.0±2.0° C. (as judged from a control without test compound), the tests are checked manually on microbial growth (=turbidity) and the minimal bactericidal concentration is determined. MBC indicates the concentration without marked turbidity. Grown germs are checked for identity to rule out unspecific contaminations. The following results are summarized and tabulated: • a) Results of the Minimal Inhibitory Concentration (MIC)* • b) Results of the Minimal Bactericidal Concentration (MBC) *The MIC is the concentration without macroscopical growth. Scarcely apparent, minimum growth or few single colonies are not considered. The controls must have a respectively good developed growth. There must be no growth on the agar plates for the sterile control. The growth of bacteria is indicated for the duplicate plates by a +(i.e., growth) or a −(i.e., no growth), +− indicates weak growth on both plates or growth on one plate and no growth on the other plate. All bacteria show appropriate growth on the respective control plate not containing any test compound. No influence of the used diluent (Aqua purifacata) was observed. No contamination is observed on the control-plates.

[2] = test system: Propionibacterium avidum ATCC 25577; assay: MIC and MBC by the agar dilution method; format: cell-based; details: pH 5.5
Experimental: as §1

[3] = final concentration 0.08 %, pH 5.5
[4] = final concentration 0.08 %, pH 6.0
[5] = final concentration 0.16 %, pH 5.5
[6] = final concentration 0.16 %, pH 6.0
[7] = final concentration 0.16 %, pH 7.4
[8] = final concentration 0.31 %, pH 5.5
[9] = final concentration 0.31 %, pH 6.0
[10] = final concentration 0.31 %, pH 7.4
[11] = final concentration 0.63 %, pH 5.5
[12] = final concentration 0.63 %, pH 6.0
[13] = final concentration 0.63 %, pH 7.4
[14] = final concentration 1.56 %, pH 5.5
[15] = final concentration 1.56 %, pH 6.0
[16] = final concentration 1.56 %, pH 7.4
[17] = final concentration 2.50 %, pH 5.5
[18] = final concentration 2.50 %, pH 6.0
[19] = final concentration 2.50 %, pH 7.4
[20] = final concentration 3.13 %, pH 5.5
[21] = final concentration 3.13 %, pH 6.0
[22] = final concentration 3.13 %, pH 7.4
[23] = final concentration 6.25 %, pH 5.5
[24] = final concentration 6.25 %, pH 6.0
[25] = final concentration 6.25 %, pH 7.4

CC1(C)CC(C)(C)CC(C)(N)C1.CS(=O)(=O)O [Neramexane mesylate]
growth of bacteria on duplicate plates (MIC determination) ([1]; final concentration 0.01 %, pH 5.5): + +
growth of bacteria on duplicate plates (MIC determination) ([1]; final concentration 0.01 %, pH 6.0): + +
growth of bacteria on duplicate plates (MIC determination) ([1]; final concentration 0.01 %, pH 7.4): + +
growth of bacteria on duplicate plates (MIC determination) ([1]; final concentration 0.04 %, pH 5.5): + +
growth of bacteria on duplicate plates (MIC determination) ([1]; final concentration 0.04 %, pH 6.0): + +
growth of bacteria on duplicate plates (MIC determination) ([1]; final concentration 0.04 %, pH 7.4): + +
growth of bacteria (MBC determination) [1, 3]: + +
growth of bacteria on duplicate plates (MIC determination) [1, 3]: − −
growth of bacteria (MBC determination) [1, 4]: + +
growth of bacteria on duplicate plates (MIC determination) [1, 4]: − −
growth of bacteria on duplicate plates (MIC determination) ([1]; final concentration 0.08 %, pH 7.4): + +
growth of bacteria (MBC determination) [1, 5]: + +
growth of bacteria on duplicate plates (MIC determination) [1, 5]: − −
growth of bacteria (MBC determination) [1, 6]: + +
growth of bacteria on duplicate plates (MIC determination) [1, 6]: − −
growth of bacteria (MBC determination) [1, 7]: + +
growth of bacteria on duplicate plates (MIC determination) [1, 7]: − −
growth of bacteria (MBC determination) [1, 8]: + +
growth of bacteria on duplicate plates (MIC determination) [1, 8]: − −
growth of bacteria (MBC determination) [1, 9]: + +
growth of bacteria on duplicate plates (MIC determination) [1, 9]: − −
growth of bacteria (MBC determination) [1, 10]: + +
growth of bacteria on duplicate plates (MIC determination) [1, 10]: − −
growth of bacteria (MBC determination) [1, 11]: + +
growth of bacteria on duplicate plates (MIC determination) [1, 11]: − −
growth of bacteria (MBC determination) [1, 12]: − −
growth of bacteria on duplicate plates (MIC determination) [1, 12]: − −
growth of bacteria (MBC determination) [1, 13]: + +
growth of bacteria on duplicate plates (MIC determination) [1, 13]: − −
growth of bacteria (MBC determination) [1, 14]: − −
growth of bacteria on duplicate plates (MIC determination) [1, 14]: − −
growth of bacteria (MBC determination) [1, 15]: − −
growth of bacteria on duplicate plates (MIC determination) [1, 15]: − −
growth of bacteria (MBC determination) [1, 16]: − −
growth of bacteria on duplicate plates (MIC determination) [1, 16]: − −
growth of bacteria (MBC determination) [1, 17]: − −
growth of bacteria on duplicate plates (MIC determination) [1, 17]: − −
growth of bacteria (MBC determination) [1, 18]: − −
growth of bacteria on duplicate plates (MIC determination) [1, 18]: − −
growth of bacteria (MBC determination) [1, 19]: − −
growth of bacteria on duplicate plates (MIC determination) [1, 19]: − −
growth of bacteria (MBC determination) [1, 20]: − −
growth of bacteria on duplicate plates (MIC determination) [1, 20]: − −
growth of bacteria (MBC determination) [1, 21]: − −
growth of bacteria on duplicate plates (MIC determination) [1, 21]: − −
growth of bacteria (MBC determination) [1, 22]: − −
growth of bacteria on duplicate plates (MIC determination) [1, 22]: − −
growth of bacteria (MBC determination) [1, 23]: − −
growth of bacteria on duplicate plates (MIC determination) [1, 23]: − −
growth of bacteria (MBC determination) [1, 24]: − −
growth of bacteria on duplicate plates (MIC determination) [1, 24]: − −
growth of bacteria (MBC determination) [1, 25]: − −
growth of bacteria on duplicate plates (MIC determination) [1, 25]: − −
MBC ([1]; pH 5.5): 1.56%
MIC ([1]; pH 5.5): 0.08%
MBC ([1]; pH 6.0): 0.63%
MIC ([1]; pH 6.0): 0.08%
MBC ([1]; pH 7.4): 1.56%
MIC ([1]; pH 7.4): 0.16%
growth of bacteria on duplicate plates (MIC determination) ([2]; final concentration 0.01 %): + +
growth of bacteria on duplicate plates (MIC determination) ([2]; final concentration 0.04 %): + +
growth of bacteria (MBC determination) ([2]; final concentration 0.08 %): + +
growth of bacteria on duplicate plates (MIC determination) ([2]; final concentration 0.08 %): − −
growth of bacteria (MBC determination) ([2]; final concentration 0.16 %): + +
growth of bacteria on duplicate plates (MIC determination) ([2]; final concentration 0.16 %): − −
growth of bacteria (MBC determination) ([2]; final concentration 0.31 %): + +
growth of bacteria on duplicate plates (MIC determination) ([2]; final concentration 0.31 %): − −
growth of bacteria (MBC determination) ([2]; final concentration 0.63 %): − −
growth of bacteria on duplicate plates (MIC determination) ([2]; final concentration 0.63 %): − −
growth of bacteria (MBC determination) ([2]; final concentration 1.56 %): − −
growth of bacteria on duplicate plates (MIC determination) ([2]; final concentration 1.56 %): − −
growth of bacteria (MBC determination) ([2]; final concentration 2.50 %): − −
growth of bacteria on duplicate plates (MIC determination) ([2]; final concentration 2.50 %): − −
growth of bacteria (MBC determination) ([2]; final concentration 3.13 %): − −
growth of bacteria on duplicate plates (MIC determination) ([2]; final concentration 3.13 %): − −
growth of bacteria (MBC determination) ([2]; final concentration 6.25 %): − −
growth of bacteria on duplicate plates (MIC determination) ([2]; final concentration 6.25 %): − −
MBC [2]: 0.63%
MIC [2]: 0.08%
